Laboratory results from patent US20230226041A1, “COMPOUNDS FOR THE TREATMENT OF VIRAL INFECTIONS” (Merck Patent GmbH, priority 2020, published 2023).
Like-named read-outs stand apart in the source and are kept apart here.

System: SARS-CoV2/ZG/297-20
Type: cell-based
Conditions: Calu-3 cells infected with SARS-CoV-2, MOI 0.05, observed for 120 hours, level about equal to uninfected cells

Row | SMILES | confluence of Calu-3 cells as compared to the infected cells (concentrations between 4 and 27 μM, FIG. 1) | confluence of Calu-3 cells as compared to the infected cells (concentrations between 16 and 81 μM, FIG. 2)
1 | COc1cc2ncc3c(c2cc1-c1cn(C)nc1C)n(-c1c(F)cncc1OC)c(=O)n3C (atropisomer, axis not shown; (Sa)) [NCE4, 8-(1,3-dimethyl-1H-pyrazol-4-yl)-1-(Sa)-(3-fluoro-5-methoxy-pyridin-4-yl)-7-methoxy-3-methyl-1,3-dihydro-imidazo[4,5-c]quinolin-2-one] | significant retainment or improvement of the confluence of the cells | –
2 | COc1cc2ncc3c(c2cc1-c1cnn(C)c1)n(-c1ccc(C#N)cc1F)c(=O)n3C [NCE16, 3-fluoro-4-[7-methoxy-3-methyl-8-(1-methyl-1H-pyrazol-4-yl)-2-oxo-2,3-dihydro-imidazo[4,5-c]quinolin-1-yl]-benzonitrile] | – | significant retainment or improvement of the confluence of the cells
